{"source": "patent US8772235B2", "about": "“Compounds having peptides conjugated to bone targeting moieties and methods of making and using thereof” (The Governors of the University of Alberta, priority 2009, dated 2014)", "key": {"serum albumin": {"biological_target": "serum albumin (Homo sapiens, UniProt P02768)", "settings": "systemically administered; cited from earlier work"}, "RAW 264.7 cells": {"tested_on": "RAW 264.7 cells", "assay": "MTT cytotoxicity on osteoclast precursor RAW 264.7 cells (SMCC series)", "format": "cell-based", "settings": "100, 500 and 1000 nM sCT or equivalent, 4 hrs", "description": "RAW 264.7 cells (ATCC VA, USA) were seeded on 96 well plates at an initial density of 2×10^4 cells/well and incubated in 200 μl GIBCO High Glucose 1× Dulbecco's Modified Eagle Medium (DMEM) (Invitrogen CA, USA) supplemented with 4.5 g/L D-Glucose, L-Glutamine, 110 mg/L Sodium Pyruvate, 10% heat inactivated fetal bovine serum (FBS) and 1% Penicillin-Streptomycin (10000 U/mL; Invitrogen) in a Thermo Fisher Scientific Water Jacketed CO2 incubator (37° C., 5% CO2).\nAfter 72 hrs, media was replaced by 200 μl basic DMEM media without FBS and incubated for 30 minutes. […] After removing the supernatant and washing twice with phosphate buffer saline, purple formazan crystals formed were dissolved in 200 μl solubilization solution (in vitro toxicology assay kit, # TOX-1, Sigma Aldrich, St. Louis, USA) and the absorbance was measured at 570 nm using microplate reader. Experiment was performed for n=8 and the absorbance of wells containing cells without sCT treatment was considered as 100% viable and used to calculate the relative viability of sCT treated cells.\nIn MTT assay, mitochondrial dehydrogenases of viable cells cleave the tetrazolium ring of MTT yielding purple formazan crystals which are insoluble in aqueous solutions. They were dissolved in acidified isopropanol and the resulting purple solution was measured spectrophotometrically. […]"}, "[1]": {"assay": "Effect on plasma phosphate level in normal rats (SMCC series)", "format": "in vivo, rat", "settings": "20 IU sCT/kg equivalent, subcutaneous", "description": "(§1) Pharmacodynamic response of sCT analogue was evaluated by analyzing plasma calcium concentration in the rat model. Sprague Dawley female rats weighing 230-260 g (about 6 weeks old) were purchased from Charles River, USA and housed at the University of Alberta Animal Holding Unit. All experimental protocols were approved by the Animals Ethics Committee of the University of Alberta. The rats were divided randomly into five groups of 3 animals each and the pharmacodynamic response was assessed following subcutaneous administration of the sCT or analogue equivalent to 20 IU sCT/kg body weight. Rats were anesthetized using Isoflurane inhalation anesthesia and the 200 μl blood samples were obtained in heparinized Eppendorf microtubes before drug injection. Then 100 μl of sCT or equivalent dose in 20 mM Sodium Acetate buffer pH 5 was sub cu injected and the blood samples were collected 1, 2, 3 and 4 hrs post injection from jugular vein. Blood plasma was obtained by centrifuging the samples at 5000 rpm for 10 min and collecting the supernatant. Plasma calcium level was assayed by QuantiChrom™ Calcium Assay Kit (BioAssay Systems, CA USA) and the plasma phosphate level was assayed by QuantiChrom™ Phosphate Assay Kit (BioAssay Systems, CA USA)."}, "[2]": {"assay": "Circular dichroism, secondary structure of sCT, sCT-PEG and sCT-PEG-BP", "format": "physicochemical", "settings": "20 mM acetate buffer pH 5.0, ~400 μg/mL sCT or equivalent", "description": "For a more detailed analysis of the influence of structural alteration of sCT on secondary structure of sCT analogue, the circular dichroism (CD) spectrum of sCT, sCT-PEG and sCT-PEG-BP was measured in the 20 mM acetate buffer pH 5.0. CD spectra were obtained with a ConvCD spectrophotometer instrument. Spectra were acquired over a wavelength range of 190 to 260 nm. The N2 flow rate was set at 5 l/min. The sample cuvette (100 μL) was cleaned with 20 mM Sodium Acetate buffer pH 5, and the spectra of test samples, which comprised of ˜400 μg/mL of sCT or equivalent the same buffer, were recorded with the corresponding buffer serving as blanks."}, "[3]": {"assay": "Effect on plasma calcium level in normal rats (PEG series)", "format": "in vivo, rat", "settings": "20 IU sCT/kg equivalent, subcutaneous", "description": "as §1, with “was” for “was sub cu”"}, "[4]": {"assay": "Effect on plasma phosphate level in normal rats (PEG series)", "format": "in vivo, rat", "settings": "20 IU sCT/kg equivalent, subcutaneous", "description": "as §1, with “was” for “was sub cu”"}, "[5]": {"assay": "Circular dichroism, secondary structure of sCT, sCT-SMCC and sCT-BP", "format": "physicochemical", "settings": "20 mM acetate buffer pH 5.0, 400 μg/mL sCT or equivalent", "description": "For a more detailed analysis of the influence of BP coupling on secondary structural confirmation of sCT, the circular dichroism (CD) spectrum of sCT, sCT-SMCC and sCT-BP was measured in the 20 mM acetate buffer pH 5.0. CD spectra were obtained with a ConvCD spectrophotometer instrument. Spectra were acquired over a wavelength range of 190 to 260 nm. The N2 flow rate was set at 5 l/min. The sample cuvette was cleaned with 20 mM Sodium Acetate buffer pH 5, and the spectra of test samples, which comprised of 400 μg/mL of sCT or equivalent the same buffer, were recorded with the corresponding buffer serving as blanks."}, "[6]": {"settings": "first hour, vs acetate buffer controls"}}}
{"substance": "Salmon calcitonin [sCT, reference compound]", "values": [{"measurement": "serum albumin bound in circulation", "setting": "serum albumin", "result": 40, "unit": "%"}, {"measurement": "cytotoxicity (absorbance of formazan solution) compared to untreated media", "setting": "RAW 264.7 cells", "result": "low levels of cytotoxicity"}, {"measurement": "percentage of plasma phosphate reduction", "setting": "[1]; 4 hour post dosing", "result": "14.69±3.71", "unit": "%"}, {"measurement": "percentage of plasma phosphate reduction", "setting": "[1]; [6]", "result": "11.91±6.24", "unit": "%"}, {"measurement": "percentage of plasma phosphate reduction", "setting": "[1]; second hour", "result": "11.64±13.01", "unit": "%"}, {"measurement": "secondary structure by CD spectrum", "setting": "[2]", "result": "random coil conformation"}, {"measurement": "percentage of plasma calcium reduction", "setting": "[3]; 4 hour post dosing", "result": "33.1±2.1", "unit": "%"}, {"measurement": "percentage of plasma calcium reduction", "setting": "[3]; [6]", "result": "20.4±5.5", "unit": "%"}, {"measurement": "percentage of plasma calcium reduction", "setting": "[3]; second hour", "result": "29.9±4.9", "unit": "%"}, {"measurement": "percentage of plasma phosphate reduction", "setting": "[4]; 4 hour post dosing", "result": "15.7±3.7", "unit": "%"}, {"measurement": "percentage of plasma phosphate reduction", "setting": "[4]; [6]", "result": "22.1±6.24", "unit": "%"}, {"measurement": "percentage of plasma phosphate reduction", "setting": "[4]; second hour", "result": "22.7±13.01", "unit": "%"}, {"measurement": "secondary structure by CD spectrum", "setting": "[5]", "result": "random coil conformation"}]}
